From patent US7208517B1, “Endothelin antagonists” (Abbott Labortories, priority 1994, dated 2007)
Read-outs that look alike come from different tables or passages of the source.

How the values were obtained:
[1] = tested on: ET-1-induced phosphatidylinositol hydrolysis in MMQ cells; assay: Determination of ET-1-induced phosphatidylinositol (PI) hydrolysis in MMQ cells; type: cell-based, rat; details: 1 nM ET-1 challenge, read-out: IC50 (inhibition of ET-induced increase in PI turnover)
Method: MMQ cells (0.4×10^6 cells/mL) were labeled with 10 μCi/mL of [^3H]myo-inositol in RPMI for 16 hours. The cells were washed with PBS, then incubated with Buffer A containing protease inhibitors and 10 mM LiCl for 60 minutes. The cells were then incubated with test compounds for 5 minutes, and then challenged with 1 nM ET-1. ET-1 challenge was terminated by the addition of 1.5 mL of 1:2 (v/v) chloroform-methanol. Total inositol phosphates were extracted after adding chloroform and water to give final proportions of 1:1:0.9 (v/v/v) chloroform-methanol-water as described by Berridge (Biochem. J. 206 587–595 (1982)). The upper aqueous phase (1 mL) was retained and a small portion (100 μL) was counted. The rest of the aqueous sample was analyzed by batch chromatography using anion-exchange resin AG1-X8 (Bio-Rad). […] The results of the above study clearly indicate that the compounds act as functional ET antagonists.

ETA Receptor = molecular target: T1, ETA Receptor (Rattus norvegicus, UniProt P26684); assay: [125I]ET-1 binding to membranes from MMQ cells (ETA receptor binding assay, Table 4); details: test compound at 1 μM; 0.1 nM [125I]ET-1, MMQ cell membranes, 4 hours at 25° C.
T1 construct: endogenous in cells; host or cells: MMQ rat pituitary cells (membranes)
T1 sequence (P26684 21-426): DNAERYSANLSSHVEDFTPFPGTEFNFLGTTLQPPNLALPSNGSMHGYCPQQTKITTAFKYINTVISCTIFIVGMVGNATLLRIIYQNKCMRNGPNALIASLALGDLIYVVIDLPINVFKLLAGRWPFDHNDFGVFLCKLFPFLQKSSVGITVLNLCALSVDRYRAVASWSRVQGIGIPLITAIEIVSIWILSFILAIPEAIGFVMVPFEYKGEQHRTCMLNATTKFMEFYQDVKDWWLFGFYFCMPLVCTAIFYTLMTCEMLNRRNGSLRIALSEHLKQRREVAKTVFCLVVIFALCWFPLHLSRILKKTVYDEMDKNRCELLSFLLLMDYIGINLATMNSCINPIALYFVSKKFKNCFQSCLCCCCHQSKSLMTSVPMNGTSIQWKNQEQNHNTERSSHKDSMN

[2] = molecular target: T2, ETB receptors of porcine cerebellar tissues (pET-B) (Sus scrofa, UniProt P35463); assay: ETA/ETB selectivity: (125I)ET-3 competition binding, ETB assay in porcine cerebellum membranes (pET-B); details: porcine cerebellum membranes; 0.1 nM (125I)ET-3; read-out: pET-B IC50
T2 construct: porcine cerebellar tissues (known to contain ETB receptors); from tissue; host or cells: porcine cerebellum (membranes)
T2 sequence (P35463 27-443): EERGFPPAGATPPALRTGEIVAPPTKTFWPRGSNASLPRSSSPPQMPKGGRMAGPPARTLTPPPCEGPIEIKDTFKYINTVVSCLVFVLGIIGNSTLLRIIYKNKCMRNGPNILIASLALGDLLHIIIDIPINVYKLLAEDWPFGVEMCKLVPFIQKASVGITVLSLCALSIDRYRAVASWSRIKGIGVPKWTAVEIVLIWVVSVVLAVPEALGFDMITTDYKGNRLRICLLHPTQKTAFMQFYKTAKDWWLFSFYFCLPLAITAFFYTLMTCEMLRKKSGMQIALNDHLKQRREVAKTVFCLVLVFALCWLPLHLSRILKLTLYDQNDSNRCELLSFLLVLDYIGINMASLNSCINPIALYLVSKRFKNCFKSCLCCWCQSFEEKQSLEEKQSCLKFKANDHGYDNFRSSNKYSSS
Method: The mixture was centrifuged at 1000×g for 10 min. The supernatant was collected and centrifuged at 60,000×g for 60 min. The precipitate was resuspended in 20 mM Tris, pH 7.4 containing protease inhibitor and centrifuged again. The final membrane pellet was resuspended in 20 mM Tris, pH 7.4 containing protease inhibitors and stored at −80° C. until used. Protein content was determined by the Bio-Rad dye-binding protein assay.
Binding assays were performed in 96-well microtiter plates pretreated with 0.1% BSA. […] After incubation, unbound ligands were separated from bound ligands by a vacuum filtration method using glass-fiber filter strips in PHD cell harvesters (Cambridge Technology, Inc., MA), washing the filter strips three times with saline (1 mL). Nonspecific binding was determined in the presence of 1 μM ET-1. IC50 values are calculated using an average of at least two separate determinations.

Row | SMILES | IC50 [1] [nM] | % Inhibition of ETA at 1 μM (ETA Receptor) [%] | IC50 ([1]; Rattus norvegicus) [nM] | IC50 [2] [nM]
1 | C=CCNC(=O)CN1CC(c2ccc3c(c2)OCO3)C(C(=O)O)C1c1ccc(OC)cc1 (stereo not drawn) [Example 14, trans,trans-2-(4-Methoxyphenyl)-4-(1,3-benzodioxol-5-yl)-1-(allylaminocarbonylmethyl)-pyrrolidine-3-carboxylic acid] | 17 | 86.6 |  | 
2 | CCCCNC(=O)CN1CC(c2ccc3c(c2)OCO3)C(C(=O)O)C1c1ccc(OC)cc1 (stereo not drawn) [Example 15, trans,trans-2-(4-Methoxyphenyl)-4-(1,3-benzodioxol-5-yl)-1-(n-butylaminocarbonylmethyl)-pyrrolidine-3-carboxylic acid] | 10 | 84.8 |  | 
3 | CCCCN(C)C(=O)CN1CC(c2ccc3c(c2)OCO3)C(C(=O)O)C1c1ccc(OC)cc1OCOC (stereo not drawn) [Example 31B, trans,trans-2-(4-Methoxy-2-methoxymethoxyphenyl)-4-(1,3-benzodioxol-5-yl)-1-(N-methyl-N-butylaminocarbonylmethyl)-pyrrolidine-3-carboxylic acid] | 2 | 93.6 |  | 
4 | CCCCN(C(=O)CN1CC(c2ccc3c(c2)OCO3)C(C(=O)O)C1c1ccc(OC)cc1)c1ccccc1 (stereo not drawn) [Example 291, trans,trans-2-(4-Methoxyphenyl)-4-(1,3-benzodioxol-5-yl)-1-(N-butyl-N-phenylaminocarbonylmethyl)-pyrrolidine-3-carboxylic acid] | 9.8 | 100.0 |  | 
5 | CCCN(CCN1CC(c2ccc3c(c2)OCO3)C(C(=O)O)C1c1ccc(OC)cc1)S(=O)(=O)c1ccc(OC(F)(F)F)cc1 (stereo not drawn) [Example 300, trans,trans-2-(4-Methoxyphenyl)-4-(1,3-benzodioxol-5-yl)-1-(2-(N-propyl-N-(4-trifluoromethoxybenzenesulfonyl)amino)ethyl)-pyrrolidine-3-carboxylic acid] | 1.2 | 96.1 |  | 
6 | CCCCCS(=O)(=O)N(CCC)CCN1C[C@H](c2ccc3c(c2)OCO3)[C@@H](C(=O)O)[C@@H]1c1ccc(OC)c(F)c1 [Example 534] |  |  | 50 | 0.36

More lines, now with the values ahead:

Row | IC50 [1] [nM] | % Inhibition of ETA at 1 μM (ETA Receptor) [%] | IC50 ([1]; Rattus norvegicus) [nM] | IC50 [2] [nM] | SMILES
7 | 25 | 96.4 |  |  | CCCNC(=O)CN1CC(c2ccc3c(c2)OCO3)C(C(=O)O)C1c1ccc(OC)cc1 (stereo not drawn) [Example 1D, trans,trans-2-(4-Methoxyphenyl)-4-(1,3-benzodioxol-5-yl)-1-(propylaminocarbonylmethyl)-pyrrolidine-3-carboxylic acid]
8 | 9 | 96.0 |  |  | CCCN(C)C(=O)CN1CC(c2ccc3c(c2)OCO3)C(C(=O)O)C1c1ccc(OC)cc1 (stereo not drawn) [Example 16, trans,trans-2-(4-Methoxyphenyl)-4-(1,3-benzodioxol-5-yl)-1-(N-(n-propyl)-N-methylaminocarbonylmethyl)-pyrrolidine-3-carboxylic acid]
9 | 9 | 97.3 |  |  | COc1ccc(C2C(C(=O)O)C(c3ccc4c(c3)OCO4)CN2CC(=O)NCC(C)C)cc1 (stereo not drawn) [Example 18, trans,trans-2-(4-Methoxyphenyl)-4-(1,3-benzodioxol-5-yl)-1-(isobutylaminocarbonylmethyl)-pyrrolidine-3-carboxylic acid]
10 | 24 | 90.3 |  |  | COc1ccc(C2C(C(=O)O)C(c3ccc4c(c3)OCO4)CN2CC(=O)NC2CCCC2)cc1 (stereo not drawn) [Example 19, trans,trans-2-(4-Methoxyphenyl)-4-(1,3-benzodioxol-5-yl)-1-(cyclopentylaminocarbonylmethyl)-pyrrolidine-3-carboxylic acid]
11 | 1 | 80.0 |  |  | CCCCN(C)C(=O)CN1CC(c2ccc3c(c2)OCO3)C(C(=O)O)C1c1ccc(OC)cc1 (stereo not drawn) [Example 30, trans,trans-2-(4-Methoxyphenyl)-4-(1,3-benzodioxol-5-yl)-1-(N-methyl-N-butylaminocarbonylmethyl)-pyrrolidine-3-carboxylic acid]
12 | 2 | 90.4 |  |  | COc1ccc(C2C(C(=O)O)C(c3ccc4c(c3)OCO4)CN2CC(=O)N(C)C2CCCCC2)cc1 (stereo not drawn) [Example 46, trans,trans-2-(4-Methoxyphenyl)-4-(1,3-benzodioxol-5-yl)-1-(N-methyl-N-cyclohexylaminocarbonylmethyl)-pyrrolidine-3-carboxylic acid]
13 | 0.5 | 95.1 |  |  | CCCN(CCC)C(=O)CN1CC(c2ccc3c(c2)OCO3)C(C(=O)O)C1c1ccc(OC)cc1 (stereo not drawn) [Example 47, trans,trans-2-(4-Methoxyphenyl)-4-(1,3-benzodioxol-5-yl)-1-(N,N-di(n-propyl)aminocarbonylmethyl)-pyrrolidine-3-carboxylic acid]
14 | 0.4 | 96.3 |  |  | COc1ccc(C2C(C(=O)O)C(c3ccc4c(c3)OCO4)CN2CC(=O)N(C)CC(C)C)cc1 (stereo not drawn) [Example 48, trans,trans-2-(4-Methoxyphenyl)-4-(1,3-benzodioxol-5-yl)-1-(N-methyl-N-isobutylaminocarbonylmethyl)-pyrrolidine-3-carboxylic acid]
